Test results reported in patent US20240218022A1, “ANTI-VISTA MACROCYCLIC PEPTIDES AND COMPOSITIONS” (BRISTOL-MYERS SQUIBB COMPANY, priority 2022, published 2024).
Like-named read-outs stand apart in the source and are kept apart here. One block for each compound: values may come before it. Starred links: 1 amine or outer side, 2 acyl side, 3 side chain; linkers in the order of their positions; H or OH if unused. Positions of bridges follow the written chain, without caps; N, C: chain ends. Non-standard residues stand in square brackets, D forms with d. Residues, ends and D or L forms follow the SMILES beside them. 2Nal = N[C@@H](Cc1ccc2ccccc2c1)C(=O)O; βAsp = O=C(O)[C@H](CC(=O)[*:2])N[*:1]; NMeL = CN[C@@H](CC(C)C)C(=O)O; Ahp(2) = CCCCC[C@H](N)C(=O)O; NMeNle = CCCC[C@H](NC)C(=O)O; Tle = CC(C)(C)[C@H](N)C(=O)O; NHexGly = CCCCCCNCC(=O)O; Nle = CCCC[C@H](N)C(=O)O; Orn = NCCC[C@H](N)C(=O)O; Aun = NCCCCCCCCCCC(=O)O; AEEA = NCCOCCOCC(=O)O

Molecular target: T1, mouse VISTA (mVISTA) (Mus musculus, UniProt Q9D659)
T1 construct: expressed in transfected cells; host or cells: Human embryonic kidney 293T cells
T1 sequence (Q9D659 33-308): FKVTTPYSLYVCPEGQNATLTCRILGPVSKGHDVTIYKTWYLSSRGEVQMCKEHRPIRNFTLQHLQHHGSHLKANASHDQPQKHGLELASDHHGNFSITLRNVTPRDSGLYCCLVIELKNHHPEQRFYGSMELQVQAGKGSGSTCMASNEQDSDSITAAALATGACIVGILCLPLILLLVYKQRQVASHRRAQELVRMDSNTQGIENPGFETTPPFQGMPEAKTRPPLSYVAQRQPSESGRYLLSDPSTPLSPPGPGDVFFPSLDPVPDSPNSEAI
Test: Cell-Based Binding High-Content Assay For mVISTA (HC CBA mVISTA)
In short: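 Read-out: Alexa 647–streptavidin signal imaged on fixed, Hoechst-stained mVISTA-293T cells, with IC50 taken from a four-parameter logistic curve. Compounds competed with 2 nM biotinylated peptide for 30 min at room temperature, tested under both no-wash and wash (1 h compound, media exchange, 1 h) formats.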

[1] = 293T cells expressing mouse VISTA, competition with biotinylated peptide (2 nM), read-out: HC CBA mVISTA IC50

SMILES: CCCCCCN1CC(=O)N[C@@H](Cc2ccc(O)cc2)C(=O)N[C@@H](CCCCN)C(=O)N[C@@H](CC(=O)O)C(=O)N[C@@H](CCCN)C(=O)N[C@@H](CC(C)C)C(=O)N[C@@H](CCCCC)C(=O)N2CCC[C@H]2C(=O)N[C@@H](C(C)C)C(=O)N[C@@H](CO)C(=O)N[C@H](C(=O)NCC(=O)O)CSCC(=O)N[C@@H](Cc2ccc3ccccc3c2)C(=O)N[C@@H](Cc2ccc(O)cc2)C(=O)N[C@@H](CC(=O)O)C1=O [Ex 1289] ({CH2CO}-[2Nal]YD[NHexGly]YKD[Orn]L[Ahp(2)]PVSCG-OH; thioether N-14)
IC50 (cell-based binding high-content assay, mVISTA, the 16th table, read-out: HC CBA mVISTA IC50): 25.2 nM

SMILES: CCCCCCN1CC(=O)N[C@@H](Cc2ccc(O)cc2)C(=O)N[C@@H](CCCCC)C(=O)N[C@@H](CCC(=O)O)C(=O)N[C@@H](CCCNC(=N)N)C(=O)N[C@@H](CC(C)C)C(=O)N[C@@H](CCCCC)C(=O)N2CCC[C@H]2C(=O)N[C@@H](C(C)C)C(=O)N[C@@H](CO)C(=O)N[C@H](C(=O)NCC(N)=O)CSCC(=O)N[C@@H](Cc2ccccc2)C(=O)N[C@@H](Cc2ccc(O)cc2)C(=O)N[C@@H](CC(=O)O)C1=O [Example 1057] ({CH2CO}-FYD[NHexGly]Y[Ahp(2)]ERL[Ahp(2)]PVSCG-NH2; thioether N-14)
IC50 [1]: 35.1 nM

Other lines, results leading:

IC50 [1]: 38.7 nM
SMILES: CCCCCCN1CC(=O)N[C@@H](Cc2ccc(O)cc2)C(=O)N[C@@H](CCCCN)C(=O)N[C@@H](CC(N)=O)C(=O)N[C@@H](CCCNC(=N)N)C(=O)N[C@@H](CC(C)C)C(=O)N[C@@H](CCCCC)C(=O)N2CCC[C@H]2C(=O)N[C@@H](C(C)C)C(=O)N[C@@H](CO)C(=O)N[C@H](C(=O)NCC(=O)O)CSCC(=O)N[C@@H](Cc2ccccc2)C(=O)N[C@@H](Cc2ccc(O)cc2)C(=O)N[C@@H](CC(=O)O)C1=O [Example 1058] ({CH2CO}-FYD[NHexGly]YKNRL[Ahp(2)]PVSCG-OH; thioether N-14)

IC50 (read-out: HC CBA mVISTA IC50): 22.4 nM
SMILES: CCCCCCN1CC(=O)N[C@@H](Cc2ccc(O)cc2)C(=O)N[C@@H](CCCC)C(=O)N[C@@H](CC(N)=O)C(=O)N[C@@H](CCCNC(=N)N)C(=O)N(C)[C@@H](CCCC)C(=O)N[C@@H](CCCCC)C(=O)N2CCC[C@H]2C(=O)N[C@@H](C(C)C)C(=O)N[C@@H](CC(=O)O)C(=O)N[C@H](C(=O)N[C@@H](CCCCN)C(=O)N[C@@H](CCC(N)=O)C(=O)O)CSCC(=O)N[C@@H](Cc2ccc3ccccc3c2)C(=O)N[C@@H](Cc2c[nH]c3ccccc23)C(=O)N[C@@H](CC(=O)O)C1=O [compound 1137] ({CH2CO}-[2Nal]WD[NHexGly]Y[Nle]NR[NMeNle][Ahp(2)]PVDCKQ-OH; thioether N-14)

IC50 (cell-based binding high-content assay, mVISTA, the 15th table, read-out: HC CBA mVISTA IC50): 14.4 nM
SMILES: CCCCCCN1CC(=O)N[C@@H](Cc2ccc(O)cc2)C(=O)N[C@@H](CCCC)C(=O)N[C@@H](CC(N)=O)C(=O)N[C@@H](CCCNC(=N)N)C(=O)N(C)[C@@H](CC(C)C)C(=O)N[C@@H](CCCCC)C(=O)N2CCC[C@H]2C(=O)N[C@@H](C(C)C)C(=O)N[C@@H](CC(=O)O)C(=O)N[C@H](C(=O)N[C@@H](CO)C(=O)O)CSCC(=O)N[C@@H](Cc2ccc3ccccc3c2)C(=O)N[C@@H](Cc2c[nH]c3ccccc23)C(=O)N[C@@H](CC(=O)O)C1=O [compound 1240] ({CH2CO}-[2Nal]WD[NHexGly]Y[Nle]NR[NMeL][Ahp(2)]PVDCS-OH; thioether N-14)

IC50 (cell-based binding high-content assay, mVISTA, read-out: HC CBA miPr ISTA IC50): 41.2 nM
SMILES: CCCCCCN1CC(=O)N[C@@H](Cc2ccc(O)cc2)C(=O)N[C@@H](CCCC)C(=O)N[C@@H](CC(N)=O)C(=O)N[C@@H](CCCNC(=N)N)C(=O)N(C)[C@@H](CCCC)C(=O)N[C@@H](CCCCC)C(=O)N2CCC[C@H]2C(=O)N[C@@H](C(C)(C)C)C(=O)N[C@@H](CO)C(=O)N[C@H](C(=O)N[C@@H](CC(=O)NCCOCCOCC(=O)N[C@@H](CC(=O)O)C(=O)NCCOCCOCC(=O)NCCCCCCCCCCC(=O)O)C(=O)O)CSCC(=O)N[C@@H](Cc2ccc3ccccc3c2)C(=O)N[C@@H](Cc2ccc(O)cc2)C(=O)N[C@@H](CC(=O)O)C1=O [compound 2023] ({CH2CO}-[2Nal]YD[NHexGly]Y[Nle]NR[NMeNle][Ahp(2)]P[Tle]SC[βAsp][AEEA]D[AEEA][Aun]-OH; thioether N-14)
